Patent US20040142937A1, “Use of heterocyclic amine-type compounds as neuroprotective agents” (priority 2002, published 2004)

Legend:
rats = assay: 3-acetylpyridine (3-AP) neurotoxicity model in rats; format: in vivo, rat
[1] = test system: rat model of cerebral infarction; conditions: administered before the event; cited from earlier work
[2] = sumanirole 1-20 mg/kg PO, given before or after 3-AP, sacrifice 96 hours later, dose-related

Q: Which results are given for `CN[C@@H]1Cc2cccc3[nH]c(=O)n(c23)C1.O=C(O)/C=C\C(=O)O` [Sumanirole, (5R)-5-(methylamino)-5,6-dihydro-4H-imidazo[4,5,1-ij]quinolin-2(1H)-one (Z)-2-butenedioate (1:1)]?
A: neuroprotective effects of sumanirole after pretreatment with raclopride (rats; pretreatment with raclopride): did not block; 3-AP induced reduction in rotorod performance (rats; sumanirole 1-20 mg/kg PO, given before or after 3-AP, dose-related): significantly attenuated; 3-AP induced reduction in cerebellar ATP (rats; [2]): significantly attenuated; 3-AP induced reduction in cerebellar cGMP (rats; [2]): significantly attenuated; inferior olive neuronal cell loss produced by 3-AP (rats; sumanirole 1-20 mg/kg PO, neuronal cell counts 96 hours later): significantly reduced

Q: For `CN[C@@H]1Cc2cccc3[nH]c(=S)n(c23)C1`, which melting point is on record?
A: 210 to 213 °C

Q: Which brain edema [1] does the source give for `CCN(CC)C(=O)N[C@H]1C=C2c3cccc4[nH]cc(c34)C[C@H]2N(C)C1` [Lisuride] here?
A: reduced

Q: What about the survival time [1] of the same compound?
A: prolonged

Q: With `CN[C@@H]1Cc2cccc3[nH]c(=S)n(c23)C1.O=C(O)CC(O)C(=O)O` as the compound, how does the melting point read?
A: 195 to 196 °C
